Tested on: liver tumor of human pancreatic cancer
Experiment: Diffusion MRI analysis of tumor response to drug treatment in vivo (liver xenograft)
Details: human pancreatic cancer tumor implanted in mouse liver; intraperitoneally 1 mg/kg/d; before vs 24 hours after initiation of treatment; FIG. 4C
Source text: FIGS. 4A-D show MRI analysis to assess tumor response to drug treatment in vivo. To evaluate tumor response to treatment in vivo in addition to US imaging technologies such as MRI that utilizes anatomical MRI, diffusion MRI, spectroscopy and Dynamic Contrast Enhanced (DCE) MRI can be used. Of these, diffusion, spectroscopy and DCE show great promise in determining early response to drug treatment, even before changes in tumor volume are observed. Anatomical and diffusion MRI techniques were used on the same liver tumor of human pancreatic cancer before (FIG. 4A) and 24 hours after (FIG. 4B) the initiation of gemcitabine (intraperitoneally 1 mg/kg/d) treatment. […] Laparoscopy or laparotomy can be used to assess tumor growth and to harvest tumor cells in liver (FIG. 4D).

Nc1ccn([C@@H]2O[C@H](CO)[C@@H](O)C2(F)F)c(=O)n1 [gemcitabine]
tumor water diffusion by diffusion MRI (early response to drug treatment): right shift in tumor water diffusion

— patent publication US20140047570A1, “ANIMAL MODEL OF HUMAN CANCER AND METHODS OF USE” (H. LEE MOFFITT CANCER CENTER AND RESEARCH INSTITUTE, INC., priority 2011, published 2014)
